In patent US12178825B2, “Method and compositions for forming a copper-containing complex and uses thereof” (COLD SPRING HARBOR LABORATORY, priority 2017, dated 2024):
“Also recorded” adds a separate entry of the source. Where two headings read alike, the source gives them in different places.

Columns and labels:
TNBC cells [1] = assay: Cellular copper levels by ICP-MS; type: cell-based
Experimental: TNBC cells (1×10^6) were plated in a 10-cm culture dish in growth medium. About 24 h after seeding cells, they were untreated or treated with DPM-1001 (2 uM) or DPM-1003 (2 uM) for 2 h. Following which, cells were washed three times with PBS. Then, 215 μl of concentrated nitric acid (BDH Aristar Ultra) was added to each sample and incubated overnight. Samples were boiled at 95° C. for 1 h. and approximately 150 μl of each sample was further diluted in 2 ml 2% nitric acid (made freshly from concentrated nitric acid and Milli-Q water). Samples were analyzed on a Thermo Fisher iCAP Qc ICP mass spectrometer in kinetic energy discrimination (KED) mode against a calibration curve of known copper and phosphorus concentrations, with Ga (20 μg/l, Inorganic Ventures) as an internal standard. Each experiment was carried out twice and each condition was repeated in at least triplicate.

MDA-MB-231 cells [2] = assay: Cell survival; type: cell-based
Experimental: The MTT assay was used to evaluate cell survival in the absence and presence of different compounds. The thiazolyl blue tetrazolium bromide (MTT) was dissolved in phosphate buffered saline (PBS) at a concentration of 5 mg/ml, filtered, and stored at 4° C. About 10,000 cells were seeded into a 96-well plate and cultured in growth medium containing serum. After 24 hours, cells were treated with the indicated concentrations of DPM-1001 or DPM-1003 (0-100 uM) for 2 hrs. Following which 20 μl MTT was added into each well. An ELISA plate reader (Biotek, Winooski, Vermont, USA) was used to measure the optical density at 490 nm.
MDA-MB-231 cells (1×10^5) were seeded in 6 cm plates in growth medium. The cells were untreated or treated with DPM-1001 (0.5, 1, 2 and 5 μM), DPM-1003 (0.5, 1, 2 and 5 μM) or TTM (25, 50, 100 μM) for 1 h. Following which, media was gently aspirated and cells were washed with PBS. To each plate 0.5 ml of crystal violet (0.5%) was added and incubated in dark for 10 minutes at room temperature. The staining solution was removed and plates were washed with PBS (three times). The cells stained with the dye were imaged.

MDA-MB-231 cells [3] = assay: MDA-MB-231 orthotopic xenograft; type: in vivo, SCID-beige mice; conditions: mice with TNBC xenograft, 5 mg/kg intraperitoneally every day
Experimental: MDA-MB-231 cells (2×10^6) were injected orthotopically into mammary fat pads of SCID-beige mice (Tectonic lab) in 15 μl of a 1:1 mixture with DMEM and growth factor-reduced Matrigel (BD Biosciences). The animals were randomly assigned to three groups to receive saline (control), DPM-1001 (5 mg/kg) or DPM-1003 (5 mg/kg) intraperitoneally everyday once the tumors reached about 200 mm^3. Tumor growth was monitored every third day and volume in mm^3 was measured three times weekly by palpation using the formula: volume=width^2×length/2. Once the tumor volume reached above 500 mm^3 in saline treated mice, the study was terminated. Tumors from all mice were removed for biochemical analysis.

TNBC cells [4] = assay: Immunoblot of copper-induced signaling; type: cell-based; conditions: co-administration
Excerpt: Equal quantities of lysates were isolated from indicated cell lines and then resolved by SDS-PAGE and immunoblotted with one of the following primary antibodies: mouse anti-MEK1/2, rabbit anti-p-PAK1, rabbit anti-PAK1, rabbit anti-ERK1/2, rabbit anti-phospho(Ser 217/221)-MEK1/2, rabbit anti-phospho(Thr 202/Tyr 204)-ERK1/2, rabbit anti-phospho (Ser 338)-c-RAF, rabbit anti-RAF, rabbit anti-phospho (Ser 112)-BAD and rabbit anti-BAD (Cell Signaling Technology), mouse anti-β-actin (Sigma), followed by detection with one of the following horseradish peroxidase-conjugated secondary antibodies: goat anti-rabbit IgG, goat anti-mouse IgG (Invitrogen), mouse anti-rabbit light-chain-specific IgG (Jackson ImmunoResearch Laboratories) using enhanced chemiluminescence (ECL; GE Healthcare) or SuperSignal West Femto Chemiluminescent substrate (Pierce) detection reagents.

PTP1B1-405 = molecular target: T1, PTP1B1-405 (Homo sapiens, UniProt P18031); assay: PTP1B phosphatase activity assay, DiFMUP substrate, long form; type: biochemical
T1 construct: PTP1B1-405 (the long form of PTP1B which contains the extended C-terminal segment); made in house; host or cells: Escherichia coli BL21 (DE3)-RIL
T1 sequence (P18031 1-405): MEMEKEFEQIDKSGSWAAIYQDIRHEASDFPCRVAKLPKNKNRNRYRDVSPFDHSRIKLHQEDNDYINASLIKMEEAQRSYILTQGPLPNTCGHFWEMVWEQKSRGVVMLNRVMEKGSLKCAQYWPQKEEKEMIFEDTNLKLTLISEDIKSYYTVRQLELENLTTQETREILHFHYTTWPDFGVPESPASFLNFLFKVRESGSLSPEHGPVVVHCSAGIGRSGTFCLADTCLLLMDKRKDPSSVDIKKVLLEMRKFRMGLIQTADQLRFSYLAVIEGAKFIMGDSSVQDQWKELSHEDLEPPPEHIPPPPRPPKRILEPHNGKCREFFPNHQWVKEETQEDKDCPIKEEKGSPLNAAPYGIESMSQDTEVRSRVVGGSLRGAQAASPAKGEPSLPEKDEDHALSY
Experimental: All common reagents were obtained from Thermo Fisher Scientific (Waltham, MA) or Sigma-Aldrich (St. Louis, MO). Difluoro-4-methylumbelliferyl phosphate (DiFMUP) was obtained from Invitrogen (cat #D22065). Solid black 384-well plates (cat #3573) for phosphatase assays were from Corning Incorporated (Corning, NY).
Wild-type PTP1B containing a His-tag was expressed in Escherichia coli BL21 (DE3)-RIL using LB. Cells were resuspended in lysis buffer (50 mM Hepes pH 7.2, 150 mM NaCl, 10 mM imidazole, 2 mM TCEP) with cOmplete EDTA-free Protease Inhibitor Cocktail (Roche), and then lysed using a sonicator at 4° C. Lysates were clarified by centrifugation. Initial protein purification was by gravity flow, nickel column chromatography. Protein was used immediately or stored at −80° C. in 50 mM HEPES pH 7.4, 100 mM NaCl, 2 mM dithiothreitol and 25% glycerol.

**Q.** What does the source list for `COC(=O)CCC(C)C1CCC2C3C(O)CC4CC(NCCCCNCc5ccccn5)CCC4(C)C3CCC12C` (stereo not drawn) [DPM-1001]?
**A.** cellular copper levels (TNBC cells [1]): depletion of copper; also recorded: reduces cellular copper levels; survival of MDA-MB-231 cells (MDA-MB-231 cells [2]): inhibiting survival; also recorded: inhibition of survival; tumor volume / tumor size (MDA-MB-231 cells [3]): reduced tumor volume; also recorded: inhibition of tumor size; also recorded: shrank the size of such tumors; copper-induced increase of pS338-RAF1 and pS112-BAD (TNBC cells [4]; 5-10 μM copper in culture media): reduced or blocked; copper-induced increase of phospho-PAK1 (TNBC cells [4]; copper added to culture media): blocked; IC50 (PTP1B1-405; after a 30 minute pre-incubation, read-out: IC50 for PTP1B1-405): 0.1 µM; IC50 (PTP1B1-405; compound pre-incubated with PTP1B, read-out: IC50, inhibition of PTP1B): 0.1 µM; reversibility of inhibition of PTP1B1-405 (PTP1B1-405; enzyme-inhibitor complex diluted, activity recovery monitored): remained inactive over an extended period of time; IC50 (PTP1B1-405; long form PTP1B1-405, DiFMUP substrate (FIG. 1), read-out: IC50, inhibition of the phosphatase): 0.1 µM; IC50 (PTP1B1-405; no pre-incubation, read-out: IC50 for PTP1B1-405): 0.6 µM; time dependence of inhibition of PTP1B1-405 (PTP1B1-405; presence of catalase): no obvious time dependence of inhibition; time dependence of inhibition of PTP1B1-405 (PTP1B1-405; presence or absence of PRX1): time-dependent increase in potency
